This is an account of results in patent US8177962B2, “Metal corrosion inhibitor and hydrogen chloride formation inhibitor in a crude oil atmospheric distillation unit” (Kurita Water Industries, Ltd., priority 2002, dated 2012).

The conditions of data set [1]: thermal decomposition at 760° C., GC/MS, FIG. 3. As for the experimental part: Choline chloride was subjected to thermal decomposition GC/MS analysis. 5989A manufactured by Hewlett Packard was used as the GC/MS analyzer, and DB624 manufactured by J&W (0.32 mm×30 m, membrane thickness of 1.8 μm) was used as the column. The temperature for thermal decomposition of choline chloride was 760° C.

Data set [2] can be described thus: Base dissociation constant (Kb) calculated from pH meter measurement. The data set is classed as physicochemical. The conditions noted are these: for Kb value (25° C.): Table 1; for Kb (25° C.) / Kb (170° C.): Table 6.

Consider `C[N+](C)(C)CCO.[Cl-]` [Choline hydrochloride (choline chloride), choline chloride], for which, in data set [1], the thermal decomposition products result was “produces methyl chloride, trimethylamine and N,N-dimethylaminoethanol by thermal decomposition, but does not produce hydrogen chloride”.
As to `C[N+](C)(C)CCO.[OH-]` [Choline, (β-hydroxyethyl)trimethylammonium hydroxide], in data set [2], the “Kb value (25° C.)” value is 3.14 × 10^−3, the “Kb (25° C.)” value is 3.14 × 10^−3 and the “Kb (170° C.)” value is 8.40 × 10^−3.
Take `NC1CCCCC1` [Cyclohexylamine]: the “Kb value (25° C.)” value in data set [2] was 3.39 × 10^−4.
Turning to `NCCO` [Monoethanolamine], in data set [2], the “Kb value (25° C.)” value is 3.15 × 10^−5, the “Kb (25° C.)” value is 2.60 × 10^−5 and the “Kb (170° C.)” value was 8.42 × 10^−6.
Turning to `C1COCCN1` [Morpholine], the “Kb value (25° C.)” value in data set [2] is given as 2.09 × 10^−6.
Dimethylethanolamine: in data set [2], the “Kb (25° C.)” value was 2.21 × 10^−5 and the “Kb (170° C.)” value is given as 3.38 × 10^−5.
